#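 48-hour exposure; five concentrations; linearly interpolated endpoints. GI50: concentration for 50% inhibition of growth. At the TGI there is no net growth.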
# Experiments:
# Experiment in all cases: NCI-60 cell line screen, 48 h
# COLO 205 colon = system: COLO 205 colon
# UO-31 renal = system: UO-31 renal
# NCI-H522 lung = system: NCI-H522 lung
# HCT-15 colon = system: HCT-15 colon
# NCI-H460 lung = system: NCI-H460 lung
# KM12 colon = system: KM12 colon
# TK-10 renal = system: TK-10 renal
# SF-295 CNS = system: SF-295 CNS
# OVCAR-8 ovarian = system: OVCAR-8 ovarian
# NCI-H23 lung = system: NCI-H23 lung
# SF-268 CNS = system: SF-268 CNS
# SK-MEL-28 melanoma = system: SK-MEL-28 melanoma
# A498 renal = system: A498 renal
# HCT-116 colon = system: HCT-116 colon
# IGROV1 ovarian = system: IGROV1 ovarian
# CCRF-CEM leukemia = system: CCRF-CEM leukemia
# MCF7 breast = system: MCF7 breast
# 786-0 renal = system: 786-0 renal
# T-47D breast = system: T-47D breast
# K-562 leukemia = system: K-562 leukemia
# HCC-2998 colon = system: HCC-2998 colon
# LOX IMVI melanoma = system: LOX IMVI melanoma
# PC-3 prostate = system: PC-3 prostate
# EKVX NSCLC = system: EKVX NSCLC
# OVCAR-4 ovarian = system: OVCAR-4 ovarian
# OVCAR-3 ovarian = system: OVCAR-3 ovarian
# HS 578T breast = system: HS 578T breast
structure (smiles),measurement,setting,value
C=C(C)[C@@]12OC3(/C=C/C=C/CCCCC)O[C@@H]1[C@@H]1[C@@H]4O[C@]4(CO)[C@@H](O)[C@]4(O)C(=O)C(C)=C[C@H]4[C@@]1(O3)[C@H](C)[C@H]2OC(=O)c1ccccc1,GI50,COLO 205 colon,< 0.01 µM
same,TGI,COLO 205 colon,1.6 µM
same,GI50,UO-31 renal,0.0221 µM
same,TGI,UO-31 renal,1.85 µM
same,GI50,NCI-H522 lung,1.27 µM
same,TGI,NCI-H522 lung,2.71 µM
same,GI50,HCT-15 colon,1.42 µM
same,TGI,HCT-15 colon,2.9 µM
same,GI50,NCI-H460 lung,< 0.01 µM
same,TGI,NCI-H460 lung,2.29 µM
same,GI50,KM12 colon,1.61 µM
same,TGI,KM12 colon,2.99 µM
same,GI50,TK-10 renal,< 0.0106 µM
same,TGI,TK-10 renal,2.17 µM
same,GI50,SF-295 CNS,< 0.01 µM
same,TGI,SF-295 CNS,4.9 µM
same,GI50,OVCAR-8 ovarian,2.77 µM
same,TGI,OVCAR-8 ovarian,7.08 µM
same,GI50,NCI-H23 lung,2.84 µM
same,TGI,NCI-H23 lung,8.12 µM
same,GI50,SF-268 CNS,1.7 µM
same,TGI,SF-268 CNS,3.15 µM
same,GI50,SK-MEL-28 melanoma,1.18 µM
same,TGI,SK-MEL-28 melanoma,2.42 µM
same,GI50,A498 renal,< 0.01 µM
same,GI50,HCT-116 colon,1.65 µM
same,TGI,HCT-116 colon,3.33 µM
same,GI50,IGROV1 ovarian,1.62 µM
same,TGI,IGROV1 ovarian,3.18 µM
same,GI50,CCRF-CEM leukemia,< 0.01 µM
same,TGI,CCRF-CEM leukemia,2.66 µM
same,GI50,MCF7 breast,1.55 µM
same,TGI,MCF7 breast,3.31 µM
same,GI50,786-0 renal,1.23 µM
same,TGI,786-0 renal,2.53 µM
same,GI50,T-47D breast,2.2 µM
same,TGI,T-47D breast,7.25 µM
same,GI50,K-562 leukemia,< 0.01 µM
same,TGI,K-562 leukemia,1.87 µM
same,GI50,HCC-2998 colon,< 0.01 µM
same,TGI,HCC-2998 colon,1.8 µM
same,GI50,LOX IMVI melanoma,1.1 µM
same,TGI,LOX IMVI melanoma,2.29 µM
same,GI50,PC-3 prostate,1.46 µM
same,TGI,PC-3 prostate,3.3 µM
same,GI50,EKVX NSCLC,1.28 µM
same,TGI,EKVX NSCLC,2.86 µM
same,GI50,OVCAR-4 ovarian,1.91 µM
same,TGI,OVCAR-4 ovarian,3.82 µM
same,GI50,OVCAR-3 ovarian,1.68 µM
same,TGI,OVCAR-3 ovarian,3.08 µM
same,GI50,HS 578T breast,< 0.01 µM
same,TGI,HS 578T breast,2.21 µM

# From PubChem BioAssay (NCI)
